According to paper PMC8456958, “Selective Bacterial Targeting and Infection‐Triggered Release of Antibiotic Colistin Conjugates” (Angewandte Chemie (International Ed. in English), 2021):
In brackets after ≈: the same amount, converted by molar mass. Positions of bridges follow the written chain, without caps; N, C: chain ends. Non-standard residues stand in square brackets, D forms with d. Residues, ends and D or L forms follow the SMILES beside them. *: point of attachment. Heptanoyl(6-Me) = CC(C)CCCCC(=O)*; Dab = NCC[C@H](N)C(=O)O

Tested on: E. coli DSM 1116
Type: cell-based, Escherichia coli
Settings: Table 1; without elastase; broth dilution, T-medium, 5-6 x 10^5 CFU, 37 °C, OD600 readout
Description: min at rt, and blood smears were prepared on microscopy slides that were air-dried in the dark. Phase contrast and fluorescence (485/520 nm) microscopy pictures were captured with a Zeiss Axiovert with a 40× APO 1.4 lens. For quantification of fluorescence, pictures were analyzed by using ImageJ (v1.52).
Outlines were drawn around each cell and circularity, area and mean fluorescence were determined.
In addition, several background readings were taken at empty areas. Total corrected cellular fluorescence (TCCF) = integrated density – (area of selected cell × mean fluorescence of background readings), was calculated for 200 bacteria for each assay.
Determination of antibacterial activities by broth dilution assay […]
External neutrophil elastase was added at 10 mU/ml or 100 mU/ml to each well at the start of incubation, where indicated. […] OD600 was then determined in a microplate reader. […]
Quantification of 1, 6 and 7
To 50 µl samples 50 µl acetic acid were added and the samples were filtered through 10 kDa ultrafiltration columns (Amicon Ultra 0.5 ml, Millipore) by centrifugation for 60 min at 14.000 x g and 4 °C. […] Colistin was quantified on a Q-Trap 6500 HPLC-MS with samples of 5 µl each as described above. […]

## CC(C)CCCCC(=O)N[C@@H](CCN)C(=O)N[C@H](C(=O)N[C@@H](CCN)C(=O)N[C@H]1CCNC(=O)[C@H]([C@@H](C)O)NC(=O)[C@H](CCN)NC(=O)[C@H](CCN)NC(=O)[C@H](CC(C)C)NC(=O)[C@@H](CC(C)C)NC(=O)[C@H](CCN)NC1=O)[C@@H](C)O [Compound 1, colistin B, reference compound] ({Heptanoyl(6-Me)}-[Dab]T[Dab][Dab][Dab][dL]L[Dab][Dab]T; lactam 4-C)
  MIC, E. coli DSM 1116: 0.063 µM (≈ 0.0728 µg/mL)
